Reference: US20020111274A1, “1-alkyl-3-[1-(substituted phenyl) benzotriazol-6-yl] uracils” (BASF Aktiengesellschaft, priority 2000, published 2002)

Columns and labels:
Parameters in all cases: scale not given here
GLXMAW Soybean, Williams = experiment: Preemergence herbicidal evaluation, GLXMAW; type: in vivo, Glycine max, (L.) Merr. cv Williams; details: preemergence
Summary of the method: (§1)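 Compound applied preemergence as an aqueous acetone spray onto freshly planted cups, dose equivalent approx. 0.013 to 0.800 kg/ha. Evaluation by rating at weeks 4–5.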

[1] = system: IPOHE Morningglory, Ivyleaf; experiment: Preemergence herbicidal evaluation, IPOHE; type: in vivo, Ipomoea hederacea, (L.) Jacq.; details: preemergence
Summary of the method: as §1

CASOB Sicklepod = experiment: Postemergence herbicidal evaluation, CASOB; type: in vivo, Cassia obtusifolia, L.; details: postemergence spray, rated about two-three weeks after treatment
Summary of the method: (§2)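 Seedlings grown about two weeks were sprayed with compound in 80/20 acetone/water containing 1.0% methylated seed oil, at the equivalent of about 0.006 to 0.400 kg/ha, through a nozzle at 40 psi. Plants were kept in the greenhouse and rated visually about two to three weeks after treatment.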

SETVI Foxtail, Green = experiment: Postemergence herbicidal evaluation, SETVI; type: in vivo, Setaria viridis, (L.) Beau; details: postemergence spray, rated about two-three weeks after treatment
Summary of the method: as §2

ABUTH Velvetleaf = experiment: Preemergence herbicidal evaluation, ABUTH; type: in vivo, Abutilon theophrasti, Medic.; details: preemergence
Summary of the method: as §1

ORYSAT Rice, Tebonnet [2] = experiment: Postemergence herbicidal evaluation, ORYSAT; type: in vivo, Oryza sativa, (L.); details: postemergence spray, rated about two-three weeks after treatment
Summary of the method: as §2

AMBEL Ragweed, Common [3] = experiment: Preemergence herbicidal evaluation, AMBEL; type: in vivo, Ambrosia artemisifolia, L.; details: preemergence
Summary of the method: as §1

AMBEL Ragweed, Common [4] = experiment: Postemergence herbicidal evaluation, AMBEL; type: in vivo, Ambrosia artemisifolia, L.; details: postemergence spray, rated about two-three weeks after treatment
Summary of the method: as §2

ORYSAT Rice, Tebonnet [5] = experiment: Preemergence herbicidal evaluation, ORYSAT; type: in vivo, Oryza sativa, (L.); details: preemergence
Summary of the method: as §1

[6] = system: TRZAWR Wheat, Winter, cv Riband; experiment: Postemergence herbicidal evaluation, TRZAWR; type: in vivo, Triticum aestivum; details: postemergence spray, rated about two-three weeks after treatment
Summary of the method: as §2

ZEAMX Corn, Field = experiment: Preemergence herbicidal evaluation, ZEAMX; type: in vivo, Zea mays, L. (Sammel-Bezeichnung); details: preemergence
Summary of the method: as §1

ECHOG Barnyardgrass = experiment: Preemergence herbicidal evaluation, ECHOG; type: in vivo, Echinochloa crus-galli, (L.) Beau; details: preemergence
Summary of the method: as §1

In the case of `CCc1ccc(-n2nnc3cc(F)c(-n4c(=O)cc(C(F)(F)F)n(C)c4=O)cc32)cc1COC` [Example 28], the GLXMAW herbicidal rating (GLXMAW Soybean, Williams; rate 0.016 kg/ha) is reported as 0.0, the GLXMAW herbicidal rating (GLXMAW Soybean, Williams; rate 0.032 kg/ha) is reported as 0.0 and the GLXMAW herbicidal rating (GLXMAW Soybean, Williams; rate 0.062 kg/ha) is reported as 0.0. The GLXMAW herbicidal rating (GLXMAW Soybean, Williams; rate 0.125 kg/ha) was 0.0, the IPOHE herbicidal rating ([1]; rate 0.016 kg/ha) was 0.0 and the IPOHE herbicidal rating ([1]; rate 0.032 kg/ha) was 0.0. The IPOHE herbicidal rating ([1]; rate 0.062 kg/ha) was 1.0, the IPOHE herbicidal rating ([1]; rate 0.125 kg/ha) was 1.0 and the “Postemergence herbicidal rating CASOB” value (CASOB Sicklepod; 0.008 kg/ha) was 0.0. For the same molecule, the “Postemergence herbicidal rating CASOB” value (CASOB Sicklepod; 0.016 kg/ha) was 0.0, the “Postemergence herbicidal rating CASOB” value (CASOB Sicklepod; 0.032 kg/ha) was 1.0 and the “Postemergence herbicidal rating CASOB” value (CASOB Sicklepod; 0.062 kg/ha) was 3.0. The “Postemergence herbicidal rating SETVI” value (SETVI Foxtail, Green; 0.008 kg/ha) was 0.0, the “Postemergence herbicidal rating SETVI” value (SETVI Foxtail, Green; 0.016 kg/ha) was 3.0 and the “Postemergence herbicidal rating SETVI” value (SETVI Foxtail, Green; 0.032 kg/ha) was 7.0. The “Postemergence herbicidal rating SETVI” value (SETVI Foxtail, Green; 0.062 kg/ha) was 9.0, the ABUTH herbicidal rating (ABUTH Velvetleaf; rate 0.032 kg/ha) was 2.0 and the ABUTH herbicidal rating (ABUTH Velvetleaf; rate 0.062 kg/ha) was 9.0. The ABUTH herbicidal rating (ABUTH Velvetleaf; rate 0.125 kg/ha) was 9.0, the “Postemergence herbicidal rating ORYSAT” value (ORYSAT Rice, Tebonnet [2]; 0.008 kg/ha) was 0.5 and the “Postemergence herbicidal rating ORYSAT” value (ORYSAT Rice, Tebonnet [2]; 0.016 kg/ha) was 2.0. For the same molecule, the “Postemergence herbicidal rating ORYSAT” value (ORYSAT Rice, Tebonnet [2]; 0.032 kg/ha) was 3.0, the “Postemergence herbicidal rating ORYSAT” value (ORYSAT Rice, Tebonnet [2]; 0.062 kg/ha) was 5.5 and the AMBEL herbicidal rating (AMBEL Ragweed, Common [3]; rate 0.016 kg/ha) was 0.0. It also gave an AMBEL herbicidal rating (AMBEL Ragweed, Common [3]; rate 0.032 kg/ha) of 0.0, an AMBEL herbicidal rating (AMBEL Ragweed, Common [3]; rate 0.062 kg/ha) of 1.0 and an AMBEL herbicidal rating (AMBEL Ragweed, Common [3]; rate 0.125 kg/ha) of 7.0. The “Postemergence herbicidal rating AMBEL” value (AMBEL Ragweed, Common [4]; 0.008 kg/ha) was 9.0, the “Postemergence herbicidal rating AMBEL” value (AMBEL Ragweed, Common [4]; 0.016 kg/ha) was 9.0 and the “Postemergence herbicidal rating AMBEL” value (AMBEL Ragweed, Common [4]; 0.032 kg/ha) was 9.0. For the same molecule, the “Postemergence herbicidal rating AMBEL” value (AMBEL Ragweed, Common [4]; 0.062 kg/ha) was 9.0, the ORYSAT herbicidal rating (ORYSAT Rice, Tebonnet [5]; rate 0.016 kg/ha) was 0.0 and the ORYSAT herbicidal rating (ORYSAT Rice, Tebonnet [5]; rate 0.032 kg/ha) was 0.0. For the same molecule, the ORYSAT herbicidal rating (ORYSAT Rice, Tebonnet [5]; rate 0.062 kg/ha) was 0.0, the ORYSAT herbicidal rating (ORYSAT Rice, Tebonnet [5]; rate 0.125 kg/ha) was 0.0 and the “Postemergence herbicidal rating TRZAWR” value ([6]; 0.008 kg/ha) was 2.5. The “Postemergence herbicidal rating TRZAWR” value ([6]; 0.016 kg/ha) was 4.5, the “Postemergence herbicidal rating TRZAWR” value ([6]; 0.032 kg/ha) was 4.5 and the “Postemergence herbicidal rating TRZAWR” value ([6]; 0.062 kg/ha) was 5.5. It also gave a ZEAMX herbicidal rating (ZEAMX Corn, Field; rate 0.016 kg/ha) of 0.0, a ZEAMX herbicidal rating (ZEAMX Corn, Field; rate 0.032 kg/ha) of 3.0 and a ZEAMX herbicidal rating (ZEAMX Corn, Field; rate 0.062 kg/ha) of 4.0. For the same molecule, the ZEAMX herbicidal rating (ZEAMX Corn, Field; rate 0.125 kg/ha) was 5.0, the ECHCG herbicidal rating (ECHOG Barnyardgrass; rate 0.016 kg/ha) was 0.0 and the ECHCG herbicidal rating (ECHOG Barnyardgrass; rate 0.032 kg/ha) was 0.0. The ECHCG herbicidal rating (ECHOG Barnyardgrass; rate 0.062 kg/ha) was 0.0 and the ECHCG herbicidal rating (ECHOG Barnyardgrass; rate 0.125 kg/ha) was 7.0.
